Experimental data published in ChEMBL document CHEMBL3784937, “Synthesis and biological evaluation of indeno[1,5]naphthyridines as topoisomerase I (TopI) inhibitors with antiproliferative activity” (Eur J Med Chem, 2016).
Active and inactive are the calls of the source. The calls are words filed in the database; no cut-off is given here.

Key:
[1] = Cytotoxicity against human SKOV3 cells assessed as growth inhibition after 48 hrs by CCK8 assay; type: functional, cell-based; conditions: SK-OV-3, 48 h
Homo sapiens [2] = species: Homo sapiens; assay: Inhibition of human recombinant topoisomerase 1B expressed in Saccharomyces cerevisiae using plasmid DNA as substrate assessed as DNA relaxation at 100 uM preincubated with enzyme for 15 mins followed by substrate addition after 3 min by agarose gel electrophoresis
[3] = Cytotoxicity against human BT20 cells assessed as growth inhibition after 48 hrs by CCK8 assay; type: functional, cell-based; conditions: BT-20, 48 h
Homo sapiens [4] = species: Homo sapiens; assay: Inhibition of human recombinant topoisomerase 1B expressed in Saccharomyces cerevisiae using plasmid DNA as substrate assessed as DNA relaxation at 100 uM preincubated with enzyme for 15 mins followed by substrate addition after 15 secs by agarose gel electrophoresis
A549 = assay: Cytotoxicity against human A549 cells assessed as growth inhibition after 48 hrs by CCK8 assay; type: functional, cell-based; conditions: A549, 48 h
Homo sapiens [5] = species: Homo sapiens; assay: Inhibition of human recombinant topoisomerase 1B expressed in Saccharomyces cerevisiae using plasmid DNA as substrate assessed as DNA relaxation at 100 uM preincubated with enzyme for 15 mins followed by substrate addition after 1 min by agarose gel electrophoresis
[6] = Inhibition of human recombinant topoisomerase 1B expressed in Saccharomyces cerevisiae using plasmid DNA as substrate assessed as DNA relaxation at 25 uM preincubated with enzyme for 15 mins followed by substrate addition after 50 secs by agarose gel electrophoresis
Homo sapiens [7] = species: Homo sapiens; assay: Inhibition of human recombinant topoisomerase 1B expressed in Saccharomyces cerevisiae using plasmid DNA as substrate assessed as DNA relaxation at 50 uM preincubated with enzyme for 15 mins followed by substrate addition after 50 secs by agarose gel electrophoresis
Homo sapiens [8] = species: Homo sapiens; assay: Inhibition of human recombinant topoisomerase 1B expressed in Saccharomyces cerevisiae using plasmid DNA as substrate assessed as DNA relaxation at 100 uM preincubated with substrate for 15 mins followed by enzyme addition after 15 secs to 3 mins by agarose gel electrophoresis
Homo sapiens [9] = species: Homo sapiens; assay: Inhibition of human recombinant topoisomerase 1B expressed in Saccharomyces cerevisiae using plasmid DNA as substrate assessed as DNA relaxation at 100 uM after 15 secs to 3 mins by agarose gel electrophoresis

Structure (SMILES) | IC50 [1] | inhibition (Homo sapiens [2]) | IC50 [3] | inhibition (Homo sapiens [4]) | IC50 (A549) | inhibition (Homo sapiens [5]) | inhibition [6] | inhibition (Homo sapiens [7]) | inhibition (Homo sapiens [8]) | inhibition (Homo sapiens [9])
O=C1c2ccccc2-c2c1c(-c1ccc(F)c(F)c1)nc1cccnc21 | > 100 µM | Active | > 100 µM | Active | 20.7 µM | Active |  |  |  | 
OC1c2ccccc2-c2c1c(-c1ccc(C(F)(F)F)cc1)nc1cccnc21 (stereo unspecified) | > 100 µM | Active | > 100 µM | Active | > 100 µM | Active | Active | Active |  | 
FC(F)(F)c1ccc(-c2nc3cccnc3c3c2Cc2ccccc2-3)cc1 | > 100 µM | Active | > 100 µM | Active | > 100 µM | Active |  |  |  | 
c1ccc2c(c1)C[C@@H]1[C@H]2c2ncccc2N[C@@H]1c1ccncc1 (relative stereo) | 55.4 µM | Active | 24.4 µM | Active | 10.6 µM | Active |  |  | Active | 
Fc1cccc([C@H]2Nc3cccnc3[C@H]3c4ccccc4C[C@H]32)c1 (relative stereo) | > 100 µM | Active | 15.5 µM | Active | 3.5 µM | Active | Active | Active | Active | 
Fc1ccc([C@H]2Nc3cccnc3[C@H]3c4ccccc4C[C@H]32)cc1F (relative stereo) | > 100 µM | Active | > 100 µM | Active | 27.3 µM | Active |  |  | Active | 
O=C1c2ccccc2-c2c1c(-c1cccc(F)c1)nc1cccnc21 | > 100 µM | Active | > 100 µM | Active | > 100 µM | Active | Active | Active |  | 
c1ccc([C@H]2Nc3cccnc3[C@H]3c4ccccc4C[C@H]32)cc1 (relative stereo) | > 100 µM | Active | > 100 µM | Active | 5.3 µM | Active |  |  |  | 
OC1c2ccccc2-c2c1c(-c1ccccc1)nc1cccnc21 (stereo unspecified) | > 100 µM | Active | > 100 µM | Active | > 100 µM | Active |  |  |  | 
O=C1c2ccccc2-c2c1c(-c1ccccc1)nc1cccnc21 | 1.9 µM | Active | 14.1 µM | Active | 23.7 µM | Active | Active | Active |  | 
c1ccc2c(c1)Cc1c(-c3ccncc3)nc3cccnc3c1-2 | 10.5 µM | Active | 32.9 µM | Active | 2.9 µM | Active |  |  |  | 
Fc1ccc(-c2nc3cccnc3c3c2Cc2ccccc2-3)c(F)c1 | 6.4 µM | Active | 39.6 µM | Active | 1.7 µM | Active |  |  |  | 
Fc1cccc(-c2nc3cccnc3c3c2Cc2ccccc2-3)c1 | > 100 µM | Active | > 100 µM | Active | > 100 µM | Active | Active | Active |  | 
c1ccc(-c2nc3cccnc3c3c2Cc2ccccc2-3)cc1 | 47.9 µM | Active | > 100 µM | Active | > 100 µM | Active | Active | Active |  | 
O=C1c2ccccc2-c2c1c(-c1ccc(F)cc1F)nc1cccnc21 | > 100 µM | Active | > 100 µM | Active | 34.1 µM | Active |  |  |  | 
O=[N+]([O-])c1ccc([C@H]2Nc3cccnc3[C@H]3c4ccccc4C[C@H]32)cc1 (relative stereo) | > 100 µM | Active | > 100 µM | Active | 10.5 µM | Active |  |  |  | 
O=C1c2ccccc2-c2c1c(-c1ccc(C(F)(F)F)cc1)nc1cccnc21 | > 100 µM | Active | > 100 µM | Active | > 100 µM | Active |  |  |  | 
CC[C@@]1(O)C(=O)OCc2c1cc1n(c2=O)Cc2cc3ccccc3nc2-1 [CAMPTOTHECIN] | 0.0055 µM | inactive | 0.07 µM | Active |  | Active |  | Active |  | Active
Fc1ccc([C@H]2Nc3cccnc3[C@H]3c4ccccc4C[C@H]32)c(F)c1 (relative stereo) | > 100 µM | Active | 86.4 µM | Active | 6.4 µM | Active |  |  | Active | 
Fc1ccc(-c2nc3cccnc3c3c2Cc2ccccc2-3)cc1F | > 100 µM | Active | > 100 µM | Active | 48.6 µM | Active |  |  |  | 
FC(F)(F)c1ccc([C@H]2Nc3cccnc3[C@H]3c4ccccc4C[C@H]32)cc1 (relative stereo) | > 100 µM | Active | 63.9 µM | Active | 4.2 µM | Active | Active | Active |  | 
O=[N+]([O-])c1ccc(-c2nc3cccnc3c3c2Cc2ccccc2-3)cc1 | 50.8 µM | Active | 61.3 µM | Active | 5.7 µM | Active |  |  |  | 
